Measured values taken from patent US6451353B1 (priority 1997, dated 2002).

Experiments:
Lewis lung carcinoma = assay: Inhibiting effect on Lewis lung carcinoma; type: in vivo, mice; conditions: Table 9; 5-Fu 5 mg/kg/d i.p. × 10
Method: Healthy C57BL/6N mice with a body weight of 18-22 g. each were obtained from the breeding center of Sichuan Institute of Antibiotic Industry, Chengdu, Sichuan Province, P. R. China. Both male and female mice were used in the experiment. Lewis lung carcinoma was obtained from the Division of Pharmacology, Sichuan Institute of Antibiotic Industry, Chengdu, Sichuan Province, P. R. China. […] The experiment was carried out in vivo according to “Procedures of in vivo Screening of Antineoplastic Drugs” established in P. R. China in 1978.

cervical carcinoma U14 = assay: Inhibiting effect on mouse cervical carcinoma U14; type: in vivo; conditions: Table 13, ICR mice; 5-Fu 5 mg/kg/d i.p. × 9
Method: Healthy Kunming and ICR mice with a body weight of 18-22 g. each were obtained from the breeding center of Sichuan Institute of Antibiotic Industry, Chengdu, Sichuan Province, P. R. China. Both male and female mice were used in the experiment. Uterine carcinoma U14 was obtained from the Division of Pharmacology, Sichuan Institute of Antibiotic Industry, Chengdu, Sichuan Province, P. R. China. […] The experiment was carried out in vivo according to “Procedures of in vivo Screening of Antineoplastic Drugs” established in P. R. China in 1978.

Sarcoma 180 [1] = assay: Combination with 5-fluorouracil and 60Co gamma rays on mouse sarcoma 180; type: in vivo; conditions: Kunming mice, Fagopyrum Composition 100 mg/kg p.o. × 10, 5-FU 5 mg/kg i.p. × 10, γ 300 rad × 1
Method: 60 Kunming mice were obtained from the breeding center of Chengdu Institute of Biological Products, the Ministry of Health, Chengdu, Sichuan Province, P. R. China.
Sarcoma 180 was obtained from the Division of Pharmacology, Sichuan Institute of Antibiotic Industry, Chengdu, Sichuan Province, P. R. China. The tumor line had been passed on several times in Kunming mice.
The drug was prepared by Nantong Pharmaceuticals, Nantong, Jiangsu Province, P. R. China.
Inoculation of tumor line and evaluation of therapeutic efficacy were performed according to “Procedures of in vivo Screening of Antineoplastic Drugs” established in P. R. China in 1978.
Sixty mice were divided into 6 groups, 10 mice for each group. Group 1 was the control group wherein the mice were treated only by saline. Groups 2 to 6 were treatment groups using different therapies. […] Group 3 was treated with 5-Fluorouracil. Group 4 was treated with ^60Co irradiation. […] Result of each group was then calculated and compared.

Sarcoma 180 [2] = assay: Inhibiting effect on mouse sarcoma 180; type: in vivo; conditions: ICR mice; 5-Fu 5 mg/kg/d i.p. × 12
Method: Healthy Kunming and ICR mice with a body weight of 18-22 g. each were obtained from the breeding center of Sichuan Institute of Antibiotic Industry, Chengdu, Sichuan Province, P. R. China. Both male and female mice were used in the experiment. Sarcoma 180 was obtained from the Division of Pharmacology, Sichuan Institute of Antibiotic Industry, Chengdu, Sichuan Province, P. R. China. […] The experiment was carried out in vivo according to “Procedures of in vivo Screening of Antineoplastic Drugs” established in P. R. China in 1978.

Tumor = assay: Tumor-inhibiting rates of extracts obtained with different solvents; type: in vivo, mice; conditions: 5-FU 10 mg/kg

- Change in Mean Value of Body Weight (Lewis lung carcinoma): +0.4 g
- Change in Mean Value of Body Weight (cervical carcinoma U14): +3.93 g
- Change in Mean Value of Body Weight (Sarcoma 180 [2]): +2.01 g
SMILES: O=c1[nH]cc(F)c(=O)[nH]1 [5-FU, 5-Fluorouracil]
- Average Tumor Weight (x ± SD) (Lewis lung carcinoma): 0.74 ± 0.49 g
- Tumor Inhibiting Rate (Lewis lung carcinoma): 52.26%
- Average Tumor Weight (x ± SD) (cervical carcinoma U14): 1.27 ± 0.37 g
- Tumor Inhibiting Rate (cervical carcinoma U14): 35.53%
- Tumor Inhibiting Rate (Sarcoma 180 [1]): 47.8%
- Tumor Weight (Sarcoma 180 [1]; saline control 1.36): 0.71 g
- Average Tumor Weight (x ± SD) (Sarcoma 180 [2]): 0.49 ± 0.25 g
- Tumor Inhibiting Rate (Sarcoma 180 [2]): 51.49%
- Tumor-inhibiting Rate (Tumor): 31.37%
